Measurements: patent US11485742B2, “2-azaspiro[3.4]octane derivatives as M4 agonists” (NOVARTIS AG, priority 2019, dated 2022)

What was measured:
[1] = target: T1, human cloned CHRM2 receptor (Homo sapiens, UniProt P08172); assay: CHRM2 Ca++ Flux Assay (M2_CHO cells, agonist mode); assay type: cell-based; details: M2 CHO cells; for EC50: agonist mode, geometric mean if tested more than once, read-out: M2 FDSS EC50; for M2 FDSS PA % / Emax: Percent Activity (PA) measured to EC100 of Carbachol; for Emax: read-out: M2 FDSS PA %
T1 construct: expressed in transfected cells; host or cells: CHO-K1 (M2_CHO)
T1 sequence (P08172 1-466): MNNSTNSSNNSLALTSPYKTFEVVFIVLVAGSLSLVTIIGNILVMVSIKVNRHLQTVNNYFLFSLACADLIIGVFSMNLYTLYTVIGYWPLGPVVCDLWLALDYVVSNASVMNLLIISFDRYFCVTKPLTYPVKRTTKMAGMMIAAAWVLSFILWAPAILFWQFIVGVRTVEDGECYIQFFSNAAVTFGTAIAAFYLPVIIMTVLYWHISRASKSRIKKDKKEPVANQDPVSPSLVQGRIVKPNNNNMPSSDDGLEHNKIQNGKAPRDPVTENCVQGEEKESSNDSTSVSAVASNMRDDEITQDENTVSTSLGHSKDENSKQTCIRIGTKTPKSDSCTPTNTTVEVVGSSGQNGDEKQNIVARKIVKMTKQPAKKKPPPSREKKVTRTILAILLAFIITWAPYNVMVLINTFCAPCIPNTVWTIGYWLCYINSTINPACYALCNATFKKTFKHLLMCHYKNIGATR
Protocol: (§1) The above examples were characterized by measuring the intracellular mobilization of Ca^++ ions caused by signaling events mediated by the receptor. The Intra-cellular Calcium flux levels were captured by the highly sensitive Ca^++ indicator, Calcium Assay Kit (BD Biosciences; Catalog Number 640178. The fluorescent activity from all receptors were monitored by the fluorescent imager, FDSS 7000EX (Hamamatsu) over a span of 3 minutes. The change in Calcium flux was readily captured upon activation with the muscarinic orthosteric agonist, Carbachol.
(§2) CHO-K1 cells stably expressing the human cloned CHRM2 receptor (M2_CHO cells) were grown and maintained in a monolayer culture with F12/HAM (Life Technologies) supplemented with 10% Fetal Bovine Serum, 1×Pen-Strep, and 0.4 mg/mL Geneticin in a humidified atmosphere (5% CO2) at 37° C. The cultures were grown to 80-90% confluency in T150 flasks (Corning) and washed with 1×DPBS and lifted with 0.05% Trypsin (Life Technologies). The cells were then spun (1K rpm, 3 minutes) and frozen using Recovery Cell Culture Freezing Media (Gibco Technologies). Cells were stored in liquid nitrogen and thawed a day before the assay.
Prior to the day of the assay, stable M2 CHO cells were thawed and plated on Greiner 384 well TC treated plate at a density of 12K cells/well and kept overnight in a humidified atmosphere (5% CO2) at 37° C. The following day, the cells were loaded with Ca^++ dye (BD Biosciences) using Loading Buffer (HBSS +Ca/+Mg, 20 mM HEPES, 2.5 mM Probenecid) and placed back in cell incubator for a minimum of 1 hour and maximum of 2 hours. After incubation, the dye was replaced with Assay Buffer (HBSS −Ca/−Mg, 20 mM HEPES, 2.5 mM Probenecid) supplemented with 20 μM ATP (Sigma Aldrich) and kept at room temperature for 60 minutes prior before running on cell imager. The FDSS 7000EX (Hamamatsu) was used to acquire Ca^++ traces from cells in response to compound treatment and the data was used to generate dose response curves in agonist mode. All compounds were serially diluted in DMSO then prepared in Assay Buffer for Ca^−+ flux studies. The dose response curves were generated from the average of triplicate wells obtained from each data point and used a non-linear regression of four parameter dose response algorithm. The Percent Activity (PA) was measured to EC100 of Carbachol.
(§3) If an Example was tested more than once in an assay, then the values below represent the geometric mean of the results from each independent experiment.

[2] = target: T2, human cloned CHRM5 receptor (Homo sapiens, UniProt P08912); assay: CHRM5 Ca++ Flux Assay (M5_CHO cells, agonist mode); assay type: cell-based; details: for M5 FDSS PA % / Emax: Percent Activity (PA) measured to EC100 of Carbachol; for EC50: agonist mode, geometric mean if tested more than once, read-out: M5 FDSS EC50; for Emax: read-out: M5 FDSS PA %
T2 construct: expressed in transfected cells; host or cells: CHO (M5_CHO)
T2 sequence (P08912 1-532): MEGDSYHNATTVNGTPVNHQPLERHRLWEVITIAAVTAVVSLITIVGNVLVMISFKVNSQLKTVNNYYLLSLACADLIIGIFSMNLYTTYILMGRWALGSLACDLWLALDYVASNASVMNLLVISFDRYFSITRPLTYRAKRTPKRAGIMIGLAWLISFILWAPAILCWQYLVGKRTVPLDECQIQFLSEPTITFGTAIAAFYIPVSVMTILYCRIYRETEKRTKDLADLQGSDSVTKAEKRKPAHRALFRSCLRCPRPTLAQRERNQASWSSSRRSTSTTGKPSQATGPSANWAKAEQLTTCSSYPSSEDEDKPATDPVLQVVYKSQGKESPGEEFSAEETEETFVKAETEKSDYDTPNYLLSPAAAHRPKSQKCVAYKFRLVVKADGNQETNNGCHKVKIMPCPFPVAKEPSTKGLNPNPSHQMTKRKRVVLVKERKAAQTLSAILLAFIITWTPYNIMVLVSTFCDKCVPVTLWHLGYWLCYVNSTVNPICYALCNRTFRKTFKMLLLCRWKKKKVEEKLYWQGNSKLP
Protocol: as §1
as §2, with “CHRM3” for “CHRM2”, “(M3_CHO” for “(M2_CHO”, “IX Pen-Strep,” for “1×Pen-Strep,”, “assay. A similar procedure was used for cells stably expressing the human cloned CHRM5 receptor (M5_CHO).” for “assay.”
Prior to the day of the assay, stable M3_CHO or M5_CHO cells were thawed and plated on Greiner 384 well black TC treated plates at 12K cells/well in F12/DMEM supplemented with 10% FBS (Hyclone) and kept overnight in a humidified atmosphere (5% CO2) at 37° C. The next day, cells were loaded with Ca^++ dye (BD Biosciences) using Loading Buffer (HBSS +Ca/+Mg, 20 mM HEPES, 2.5 mM Probenecid) and placed back in cell incubator for a minimum of 1 hour. After incubation, the dye was replaced with Assay Buffer (HBSS −Ca/−Mg, 20 mM HEPES, 2.5 mM Probenecid) and kept at room temperature in the dark before running on cell imager. The FDSS 7000EX (Hamamatsu) was used to acquire Ca^+− traces from cells treated with 11 point dose response of compounds in triplicate in order to generate dose response curves in agonist mode. All compounds were serially diluted in DMSO then prepared in Assay Buffer for Ca^++ flux studies. The dose response curves were generated from the average of triplicate wells obtained from each data point and used a non-linear regression of four parameter dose response algorithm. The Percent Activity (PA) was measured to EC100 of Carbachol.
as §3

Compound | EC50 [1] | M2 FDSS PA % [1] | M5 FDSS PA % [2] | EC50 [2] | Emax [1] | Emax [2]
CC1(C)C[C@@H](Oc2ccc(F)cc2C2CCN([C@@H]3COC4(C3)CN(c3nnco3)C4)CC2)CO1 (single isomer, unassigned) [Example 2N, (S)-7-(4-(2-(((R)-5,5-dimethyltetrahydrofuran-3-yl)oxy)-5-fluorophenyl)piperidin-1-yl)-2-(1,3,4-oxadiazol-2-yl)-5-oxa-2-azaspiro[3.4]octane or (S)-7-(4-(2-(((S)-5,5-dimethyltetrahydrofuran-3-yl)oxy)-5-fluorophenyl)piperidin-1-yl)-2-(1,3,4-oxadiazol-2-yl)-5-oxa-2-azaspiro[3.4]octane] | 4.24 µM | 20% | 0% | > 25 µM | – | –
O[C@H]1CC[C@@H](c2ccc(F)cc2C2CCN([C@@H]3COC4(C3)CN(c3nnco3)C4)CC2)CC1 (single isomer, unassigned) [Example 3I, (1R,4s)-4-(2-(1-((S)-2-(1,3,4-oxadiazol-2-yl)-5-oxa-2-azaspiro[3.4]octan-7-yl)piperidin-4-yl)-4-fluorophenyl)cyclohexan-1-ol or (1S,4r)-4-(2-(1-((S)-2-(1,3,4-oxadiazol-2-yl)-5-oxa-2-azaspiro[3.4]octan-7-yl)piperidin-4-yl)-4-fluorophenyl)cyclohexan-1-ol] | 3.86 µM | 32% | 0% | > 25 µM | – | –
c1ccc(C2CCN([C@@H]3COC4(C3)CN(c3ncco3)C4)CC2)c(-c2cncnc2)c1 [Example 4R, (S)-2-(oxazol-2-yl)-7-(4-(2-(pyrimidin-5-yl)phenyl)piperidin-1-yl)-5-oxa-2-azaspiro[3.4]octane] | 0.203 µM | – | – | > 25 µM | 12% | 0%
COCCOc1ccc(F)cc1C1CCN([C@@H]2COC3(C2)CN(c2ncns2)C3)CC1 [Example 5D, (S)-7-(4-(5-fluoro-2-(2-methoxyethoxy)phenyl)piperidin-1-yl)-2-(1,2,4-thiadiazol-5-yl)-5-oxa-2-azaspiro[3.4]octane] | > 25 µM | – | – | > 25 µM | 0% | 0%
Fc1cc(OCC2(F)COC2)c(C2CCN([C@@H]3COC4(C3)CN(c3ncco3)C4)CC2)cc1F [Example 4P, (S)-7-(4-(4,5-difluoro-2-((3-fluorooxetan-3-yl)methoxy)phenyl)piperidin-1-yl)-2-(oxazol-2-yl)-5-oxa-2-azaspiro[3.4]octane] | 10.5 µM | – | – | > 25 µM | 28% | 0%
Fc1ccc(OC[C@@H]2CCOC2)c(C2CCN([C@@H]3COC4(C3)CN(c3nncs3)C4)CC2)c1 [Example 5I, (S)-7-(4-(5-fluoro-2-(((R)-tetrahydrofuran-3-yl)methoxy)phenyl)piperidin-1-yl)-2-(1,3,4-thiadiazol-2-yl)-5-oxa-2-azaspiro[3.4]octane] | 0.545 µM | – | – | > 25 µM | 43% | 0%
Fc1ccc(O[C@@H]2CCOC2)c(C2CCN([C@@H]3COC4(C3)CN(c3nncs3)C4)CC2)c1 [Example 5H, (S)-7-(4-(5-fluoro-2-(((R)-tetrahydrofuran-3-yl)oxy)phenyl)piperidin-1-yl)-2-(1,3,4-thiadiazol-2-yl)-5-oxa-2-azaspiro[3.4]octane] | 0.443 µM | – | – | > 25 µM | 40% | 0%
Fc1ccc([C@H]2CCOC2)c(C2CCN([C@@H]3COC4(C3)CN(c3nnco3)C4)CC2)c1 (single isomer, unassigned) [Example 3E, (S)-7-(4-(5-fluoro-2-((R)-tetrahydrofuran-3-yl)phenyl)piperidin-1-yl)-2-(1,3,4-oxadiazol-2-yl)-5-oxa-2-azaspiro[3.4]octane or (S)-7-(4-(5-fluoro-2-((S)-tetrahydrofuran-3-yl)phenyl)piperidin-1-yl)-2-(1,3,4-oxadiazol-2-yl)-5-oxa-2-azaspiro[3.4]octane] | 0.404 µM | 60% | 0% | > 25 µM | – | –
